The values below come from patent EP4660185A1, “NAV1.7- AND/OR NAV1.8-INHIBITING AMIDES, PROCESSES FOR THE PREPARATION THEREOF, COMPOSITIONS, USES, METHODS FOR TREATMENT USING SAME, AND KITS” (Eurofarma Laboratórios S.A., priority 2023, dated 2024).

pIC50: −log10 of the molar value.

The target of assay [1] is T1, human sodium channels Nav 1.7 (Homo sapiens, UniProt Q15858).
T1 construct: expressed in transfected cells
Kind of assay: Automated whole-cell voltage-clamp (ScreenPatch 384P) sodium current block, Nav 1.7. The class given is cell-based. As to conditions: CHO cells stably expressing human Nav 1.7; holding -100 mV, inactivation step -40 mV for 8 seconds, test step 0 mV (TP1A); exposure at least five minutes, room temperature; mean where tested in two or more assays; read-out: Nav1.7 IC50. The protocol:
(§1) Biological assays were performed on Chinese hamster ovary (CHO) cells that express human sodium channels Nav 1.8 or Nav 1.7 in a stable manner.
(§2) The experimental protocol voltage-clamp using the whole cell configuration was established on the automated ScreenPatch® 384P platform (SP384PE, Nanion Technologies, Livingston, NJ) and the results were recorded with a Nanion 384-well Patch Clamp chip (NPC) (Nanion Technologies, Livingston, NJ).
(§3) Compounds of Formula Ia and Formula Ib were diluted in eight concentrations in the extracellular solution composed of saline solution, buffered with HEPES (mM): NaCl, 137; KCl, 4; CaCl2, 3,8; MgCl2, 1; HEPES, 10; Glucose, 10; pH 7.4. The […], 50; CsF, 90; MgCl2, 5; EGTA, 5; HEPES, 10; pH 7.2. The duration of exposure of each compound with cells expressing Nav 1.7 or Nav 1.8 was at least five minutes, and the assays were performed at room temperature.
(§4) The measurements of the sodium currents of Nav 1.8 and Nav 1.7 were obtained using the voltage protocol described below: A holding voltage of -100 mV was established followed by an inactivation voltage step at -40 mV for 8 seconds, followed by a step of -100 mV for 20 ms, followed by a 20 ms step for 10 mV for Nav 1.8 or 0 mV for Nav 1.7 (TP1A) before returning to the holding voltage of -100 mV.
(§5) The protocol was repeated at a frequency of 0.05 Hz and the amplitude of the current was quantified throughout the recording of the TP1A phase. The variation in the amplitude of the peak current was evaluated according to the formula described below, after exposing the cells expressing the channels to each concentration of the different compounds: % Block = (1−(ITP1A,molecule/ITP1A,basal)×100%, [formula] wherein ITP1A,basal and ITP1A,molecule represent the peaks of sodium current input into TP1A before exposure to the compound and in the presence of the compound, respectively.
(§6) Data were obtained by nonlinear regression (nonlinear least squares) with XLfit for Excel (Microsoft, Redmond, WA).
(§7) The compounds were tested in at least one assay to obtain the value of CI50. For compounds that were tested in two or more assays, the results are described as the mean of the CI50 values.

Assay [2] addresses T2, human sodium channels Nav 1.8 (Homo sapiens, UniProt Q9Y5Y9).
T2 construct: expressed in transfected cells
Kind of assay: Automated whole-cell voltage-clamp (ScreenPatch 384P) sodium current block, Nav 1.8. Format: cell-based. As to conditions: CHO cells stably expressing human Nav 1.8; holding -100 mV, inactivation step -40 mV for 8 seconds, test step 10 mV (TP1A); exposure at least five minutes, room temperature; mean where tested in two or more assays; read-out: Nav1.8 IC50. The protocol: as §1, §2, §3, §4, §5, §6, §7

As a reminder, the pIC50 is the IC50 on a negative log10 scale, so that one unit is a factor of ten.

T1 sequence (Q15858 whole entry): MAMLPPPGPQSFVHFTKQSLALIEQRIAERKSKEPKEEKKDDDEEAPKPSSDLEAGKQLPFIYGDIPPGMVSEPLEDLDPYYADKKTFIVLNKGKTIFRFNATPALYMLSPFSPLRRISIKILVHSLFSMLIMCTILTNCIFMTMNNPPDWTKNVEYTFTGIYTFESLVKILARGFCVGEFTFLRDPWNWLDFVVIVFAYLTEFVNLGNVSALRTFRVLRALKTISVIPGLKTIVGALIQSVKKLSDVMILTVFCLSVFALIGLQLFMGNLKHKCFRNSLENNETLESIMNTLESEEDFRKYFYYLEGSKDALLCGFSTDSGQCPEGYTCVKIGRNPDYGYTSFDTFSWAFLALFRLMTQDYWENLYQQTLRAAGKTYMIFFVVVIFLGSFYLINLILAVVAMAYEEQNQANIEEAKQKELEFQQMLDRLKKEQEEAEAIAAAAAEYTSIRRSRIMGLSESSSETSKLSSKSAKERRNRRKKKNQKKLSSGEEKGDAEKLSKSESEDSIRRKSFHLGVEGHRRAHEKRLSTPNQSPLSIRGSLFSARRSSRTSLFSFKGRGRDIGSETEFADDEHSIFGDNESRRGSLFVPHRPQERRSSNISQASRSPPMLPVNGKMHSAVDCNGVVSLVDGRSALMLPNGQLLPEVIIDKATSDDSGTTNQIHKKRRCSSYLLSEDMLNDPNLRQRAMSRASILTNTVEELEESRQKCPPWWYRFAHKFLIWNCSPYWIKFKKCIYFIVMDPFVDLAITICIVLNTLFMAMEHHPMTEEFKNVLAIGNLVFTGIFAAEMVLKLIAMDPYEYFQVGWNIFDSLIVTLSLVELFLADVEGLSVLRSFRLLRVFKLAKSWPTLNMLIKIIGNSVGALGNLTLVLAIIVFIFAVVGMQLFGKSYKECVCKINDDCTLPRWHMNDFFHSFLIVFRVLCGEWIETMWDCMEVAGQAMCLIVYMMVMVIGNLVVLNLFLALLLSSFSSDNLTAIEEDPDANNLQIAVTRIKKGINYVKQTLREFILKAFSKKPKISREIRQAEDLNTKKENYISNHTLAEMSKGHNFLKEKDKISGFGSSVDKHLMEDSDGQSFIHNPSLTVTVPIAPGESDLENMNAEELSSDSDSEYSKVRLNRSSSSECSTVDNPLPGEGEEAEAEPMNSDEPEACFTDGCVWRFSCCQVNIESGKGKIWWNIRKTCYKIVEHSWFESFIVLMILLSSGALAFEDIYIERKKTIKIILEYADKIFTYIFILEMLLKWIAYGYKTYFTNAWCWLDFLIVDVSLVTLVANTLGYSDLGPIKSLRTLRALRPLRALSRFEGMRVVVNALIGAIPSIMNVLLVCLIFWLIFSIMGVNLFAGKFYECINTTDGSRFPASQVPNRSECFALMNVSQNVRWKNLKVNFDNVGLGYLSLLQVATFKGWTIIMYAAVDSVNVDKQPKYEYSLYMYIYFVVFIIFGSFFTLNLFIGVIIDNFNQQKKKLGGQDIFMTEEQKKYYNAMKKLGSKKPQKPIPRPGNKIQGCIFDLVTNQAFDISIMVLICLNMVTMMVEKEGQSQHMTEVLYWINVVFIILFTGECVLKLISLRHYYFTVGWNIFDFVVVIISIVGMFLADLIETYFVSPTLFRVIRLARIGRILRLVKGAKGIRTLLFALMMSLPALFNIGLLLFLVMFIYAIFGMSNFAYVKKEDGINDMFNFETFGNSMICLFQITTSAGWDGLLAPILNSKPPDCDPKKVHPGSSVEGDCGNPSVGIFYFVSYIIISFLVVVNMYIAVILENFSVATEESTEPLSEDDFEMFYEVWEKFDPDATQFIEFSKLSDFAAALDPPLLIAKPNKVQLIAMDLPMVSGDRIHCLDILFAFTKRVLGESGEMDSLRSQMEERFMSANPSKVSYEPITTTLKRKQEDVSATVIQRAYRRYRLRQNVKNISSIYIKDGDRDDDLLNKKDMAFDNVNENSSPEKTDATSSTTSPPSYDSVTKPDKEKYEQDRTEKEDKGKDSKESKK
T2 sequence (Q9Y5Y9 whole entry): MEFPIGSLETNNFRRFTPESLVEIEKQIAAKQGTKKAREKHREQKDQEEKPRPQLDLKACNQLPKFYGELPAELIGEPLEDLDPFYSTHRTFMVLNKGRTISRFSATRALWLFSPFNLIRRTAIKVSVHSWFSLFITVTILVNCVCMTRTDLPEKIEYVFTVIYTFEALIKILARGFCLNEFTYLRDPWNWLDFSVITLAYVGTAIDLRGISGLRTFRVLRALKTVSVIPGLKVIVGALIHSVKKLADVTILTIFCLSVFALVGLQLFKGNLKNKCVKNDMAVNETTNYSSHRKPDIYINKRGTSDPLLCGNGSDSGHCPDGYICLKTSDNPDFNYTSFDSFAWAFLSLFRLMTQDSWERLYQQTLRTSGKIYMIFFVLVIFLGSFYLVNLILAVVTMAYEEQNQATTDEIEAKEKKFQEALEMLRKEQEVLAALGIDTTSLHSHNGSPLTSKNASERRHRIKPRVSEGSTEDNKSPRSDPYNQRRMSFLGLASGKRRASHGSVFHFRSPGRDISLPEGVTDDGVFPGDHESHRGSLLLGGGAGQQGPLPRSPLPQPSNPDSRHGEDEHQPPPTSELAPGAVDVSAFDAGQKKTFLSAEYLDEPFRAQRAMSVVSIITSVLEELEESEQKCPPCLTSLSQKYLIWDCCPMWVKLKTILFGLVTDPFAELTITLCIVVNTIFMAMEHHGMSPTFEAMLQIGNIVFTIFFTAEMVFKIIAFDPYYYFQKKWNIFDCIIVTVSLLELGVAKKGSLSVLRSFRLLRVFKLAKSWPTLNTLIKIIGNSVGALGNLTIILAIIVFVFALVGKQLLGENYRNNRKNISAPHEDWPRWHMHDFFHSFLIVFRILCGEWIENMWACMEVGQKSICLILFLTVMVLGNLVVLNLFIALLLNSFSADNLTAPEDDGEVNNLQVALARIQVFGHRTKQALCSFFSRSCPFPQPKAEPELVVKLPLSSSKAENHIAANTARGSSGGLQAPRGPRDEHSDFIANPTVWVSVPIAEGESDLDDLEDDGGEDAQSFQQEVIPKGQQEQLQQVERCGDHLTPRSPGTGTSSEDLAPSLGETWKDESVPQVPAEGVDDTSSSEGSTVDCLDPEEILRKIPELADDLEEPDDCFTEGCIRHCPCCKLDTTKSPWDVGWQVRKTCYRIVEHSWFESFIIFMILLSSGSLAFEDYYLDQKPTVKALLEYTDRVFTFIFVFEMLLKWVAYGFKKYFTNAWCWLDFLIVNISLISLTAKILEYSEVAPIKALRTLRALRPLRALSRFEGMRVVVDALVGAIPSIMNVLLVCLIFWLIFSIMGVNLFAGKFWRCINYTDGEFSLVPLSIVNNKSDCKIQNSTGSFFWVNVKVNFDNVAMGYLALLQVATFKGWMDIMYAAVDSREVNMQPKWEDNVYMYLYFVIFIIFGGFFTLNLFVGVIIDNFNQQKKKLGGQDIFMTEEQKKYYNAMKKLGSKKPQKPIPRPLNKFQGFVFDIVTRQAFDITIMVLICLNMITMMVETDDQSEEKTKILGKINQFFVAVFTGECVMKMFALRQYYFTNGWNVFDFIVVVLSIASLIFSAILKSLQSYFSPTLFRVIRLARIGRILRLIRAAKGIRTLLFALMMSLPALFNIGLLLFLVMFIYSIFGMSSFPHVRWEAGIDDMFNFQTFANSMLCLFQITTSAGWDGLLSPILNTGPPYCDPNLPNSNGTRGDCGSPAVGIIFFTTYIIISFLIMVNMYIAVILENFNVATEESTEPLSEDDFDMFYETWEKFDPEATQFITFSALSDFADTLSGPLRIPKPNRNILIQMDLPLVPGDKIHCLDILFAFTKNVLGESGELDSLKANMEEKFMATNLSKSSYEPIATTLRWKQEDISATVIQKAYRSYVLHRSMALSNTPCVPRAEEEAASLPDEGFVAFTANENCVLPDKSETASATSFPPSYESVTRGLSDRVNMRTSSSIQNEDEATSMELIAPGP

Turning to `CCOc1ccc(-c2cnnc(C(=O)NCCc3cc(OC)cnc3F)c2)cn1` [compound 112], the pIC50 in assay [1] and in assay [2] was less than 6.00 each time.
With `CCOc1ccc(-c2cncc(C(=O)NCCc3cc(OC)cnc3F)c2)cn1` [compound 113], the pIC50 in assay [1] and in assay [2] was less than 6.00 in each case.
In the case of `CCOc1ccc(-c2ccnc(C(=O)NCCc3cc(OC)cnc3F)c2)cn1` [compound 114], the pIC50 in assay [1] and in assay [2] was less than 6.00 throughout.
Turning to `CCOc1ccc(-c2ccnc(C(=O)NCCc3cc(OC)cnc3F)n2)cn1` [compound 115], the pIC50 in assay [1] and in assay [2] was less than 6.00 each time.
